Patent US20100298252A1, “METHODS AND COMPOSITIONS FOR OPHTHALMIC TREATMENT OF FUNGAL AND BACTERIAL INFECTIONS” (priority 2004, published 2010)
Values joined by “and” are separate entries in the source; they are usually repeats but may differ in a detail not shown here. Identical values can stand only once.

How the values were obtained:
Type in all cases: cell-based
[1] = system: Pseudomonas aeruginosa; assay: MIC and FIC index, microtiter checkerboard / broth dilution; conditions: Ps. aeruginosa; antibiotic alone
Procedure: (§1) Agents and Chem. 210-217. (1967) and Sparks et al., Vet. Res. Comm. 18, 241-249 (1994), incorporated herein by reference in their entireties. […] Then 0.05 ml of an 18-hour old culture of a test organism, containing 10^6 colony-forming units (CFU)/ml, was added to each well. Controls for the culture and media were included in each plate. Plates were covered and incubated at 37° Celsius for 18-24 hours. […] To generate isobolograms, FICs of the two test solutions were plotted individually on the x-axis and y-axis to determine the effect of combining the two test solutions on bacterial growth. A line that curves away from, the zero point and the coordinates indicates antagonism. […] A numerical score or fractional inhibitory concentration (FIC) index was determined. The FIC index is equal to the sum of the values of FIC for the individual drugs: […] Am. Soc. Microbiol. Williams and Wilkins, Baltimore 1970), incorporated herein by reference in its entirety. […] Ps. aeruginosa, and Ent. faecalis.

[2] = system: Enterococcus faecalis; assay: as above; conditions: Ent. faecalis; antibiotic alone
Procedure: as §1

[3] = system: Staphylococcus aureus; assay: as above; conditions: Staph. aureus; antibiotic alone
Procedure: as §1

[4] = system: Pseudomonas aeruginosa; assay: Antibiotic resistance profile by disc diffusion; parameters: key: R = resistant; I = intermediate; S = sensitive; conditions: disc diffusion on MHA
Procedure: (§2) The organisms of this study were isolated from human burn patients. They included strains of methicillin resistant Staphylococcus aureus, and vancomycin resistant strains of Pseudomonas aeruginosa and Enterococcus faecalis. The bacterial isolates were propagated in or on Brain Heart Infusion broth (BHI), Mueller-Hinton Broth (MHB), blood agar (BA), Mueller-Hinton agar (MHA), enterococcus agar (EA), or 2× nutrient agar (2×NA).
(§3) Antibiotic resistance profiles were determined by the disc diffusion method on MHA (5).

[5] = system: Enterococcus faecalis; assay: Antibiotic resistance profile by disc diffusion; parameters: key: R = resistant; I = intermediate; S = sensitive; conditions: disc diffusion on MHA
Procedure: as §2, §3

[6] = system: Staphylococcus aureus; assay: Antibiotic resistance profile by disc diffusion; parameters: key: R = resistant; I = intermediate; S = sensitive; conditions: disc diffusion on MHA
Procedure: as §2, §3

[7] = system: Pseudomonas aeruginosa; assay: Minimal Bactericidal Concentration, broth-dilution microtiter; conditions: Ps. aeruginosa
Text: (§4) 307 (pub: Am. Soc. Microbiol. Williams and Wilkins, Baltimore 1970), incorporated herein by reference in its entirety.

[8] = system: Enterococcus faecalis; assay: as above
Text: as §4

[9] = system: Staphylococcus aureus; assay: as above; conditions: Staph. aureus
Text: as §4

[10] = neomycin co-administered with EDTA, 50 mM Tris

Compound | MIC Individually Administered, antibiotic [1] [mg/mL] | MIC Individually Administered, antibiotic [2] [mg/mL] | MIC Individually Administered, antibiotic [3] [mg/mL] | Antibiotic resistance profile [4] | Antibiotic resistance profile [5] | Antibiotic resistance profile [6] | Decrease of MBC value when EDTA and neomycin combined vs individually administered [7] [%] | MBC Individually Administered ([7]; neomycin alone, 50 mM Tris) [mg/mL] | MBC Co-administered [7, 10] [mg/mL] | MBC Individually Administered ([8]; En. faecalis, neomycin alone, 50 mM Tris) [mg/mL] | MBC Co-administered ([8]; En. faecalis, neomycin co-administered with EDTA, 50 mM Tris) [mg/mL] | Decrease of MBC value when EDTA and neomycin combined vs individually administered ([8]; Ent. faecalis) [%] | Decrease of MBC value when EDTA and neomycin combined vs individually administered [9] | MBC Individually Administered ([9]; neomycin alone, 50 mM Tris) [mg/mL] | MBC Co-administered [9, 10] [mg/mL]
CC1(C)S[C@@H]2[C@H](NC(=O)[C@H](N)c3ccccc3)C(=O)N2[C@H]1C(=O)O [Ampicillin, ampicillin] | 0.49 | 0.001 | 0.24 | R | S | R^B | – | – | – | – | – | – | – | – | –
O=C(N[C@H](CO)[C@H](O)c1ccc([N+](=O)[O-])cc1)C(Cl)Cl [Chloramphenicol, chloramphenicol] | 12.5 | 0.4 | 0.39 | R | R | I | – | – | – | – | – | – | – | – | –
neomycin | 1.0 | 3.13 | 3.13 | R | R | R | 99.2 | 5.0 | 0.04 | 25.0 | 6.25 | 75 | about 50% and 50% | 3.13 | 1.56
